Data taken from ChEMBL document CHEMBL1201862, “PubChem BioAssay data set” (2004).
Calls of active or inactive are those of the source.

Legend:
Assay type in all cases: functional
[1] = viability loss in Mcl1-dependent HMC-1-8 cells, dose response, selectivity assay for A1 inhibitor project, cell-based, luminescence, dry powder (AID 504415); settings: Homo sapiens
[2] = target: Protein disulfide-isomerase (Homo sapiens, UniProt P07237); assay: PDI inhibitors, insulin aggregation turbidity, dose response, biochemical, absorbance, cherry-picked samples (AID 602350)
[3] = target: cAMP-dependent protein kinase catalytic subunit alpha (Homo sapiens, UniProt P17612)
[4] = target: Homeodomain-interacting protein kinase 2 (Homo sapiens, UniProt Q9H2X6);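 further: measured within a kinome-wide kinase profiling panel, HIPK2 being one panel member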
[5] = target: Serine/threonine-protein kinase pim-1 (Homo sapiens, UniProt P11309)
[6] = target: Mitogen-activated protein kinase kinase kinase kinase 4 (Homo sapiens, UniProt O95819)
[7] = target: Interleukin-1 receptor-associated kinase 4 (Homo sapiens, UniProt Q9NWZ3)
[8] = target: Cell division cycle 7-related protein kinase (Homo sapiens, UniProt O00311);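 further: value obtained from a kinome-wide kinase panel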
[9] = target: T1, Sentrin-specific protease 7 (Homo sapiens, UniProt Q9BQF6); assay: SENP7 protease inhibitors, SAR follow-up, biochemical, luminescence, set 2 (AID 588600)
T1 sequence (Q9BQF6 whole entry): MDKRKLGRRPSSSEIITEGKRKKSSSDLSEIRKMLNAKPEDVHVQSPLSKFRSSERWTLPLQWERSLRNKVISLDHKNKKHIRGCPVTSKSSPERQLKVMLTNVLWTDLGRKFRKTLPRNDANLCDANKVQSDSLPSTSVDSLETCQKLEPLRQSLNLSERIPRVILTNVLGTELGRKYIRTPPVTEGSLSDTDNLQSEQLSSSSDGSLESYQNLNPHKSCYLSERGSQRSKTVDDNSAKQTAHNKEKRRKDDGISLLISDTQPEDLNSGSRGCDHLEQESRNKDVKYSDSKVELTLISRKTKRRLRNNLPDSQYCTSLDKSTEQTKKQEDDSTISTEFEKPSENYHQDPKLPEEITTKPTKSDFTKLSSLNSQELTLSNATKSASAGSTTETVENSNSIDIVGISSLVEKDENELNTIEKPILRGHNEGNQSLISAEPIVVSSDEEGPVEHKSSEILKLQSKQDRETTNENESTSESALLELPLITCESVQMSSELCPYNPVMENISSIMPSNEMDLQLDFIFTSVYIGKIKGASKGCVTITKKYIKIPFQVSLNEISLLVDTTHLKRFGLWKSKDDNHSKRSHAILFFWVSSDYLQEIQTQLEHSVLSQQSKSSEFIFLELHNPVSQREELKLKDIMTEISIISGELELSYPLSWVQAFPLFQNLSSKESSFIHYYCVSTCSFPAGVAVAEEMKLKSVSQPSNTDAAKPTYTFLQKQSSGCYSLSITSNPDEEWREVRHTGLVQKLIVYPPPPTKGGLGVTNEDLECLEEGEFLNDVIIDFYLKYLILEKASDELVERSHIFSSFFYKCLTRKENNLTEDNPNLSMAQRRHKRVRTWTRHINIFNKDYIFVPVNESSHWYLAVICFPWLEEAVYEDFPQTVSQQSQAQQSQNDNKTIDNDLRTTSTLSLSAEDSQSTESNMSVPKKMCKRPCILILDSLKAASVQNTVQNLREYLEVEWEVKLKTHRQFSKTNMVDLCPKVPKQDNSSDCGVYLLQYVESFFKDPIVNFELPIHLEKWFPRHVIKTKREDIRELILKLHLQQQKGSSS

[10] = target: T2, Sentrin-specific protease 8 (Homo sapiens, UniProt Q96LD8); assay: SENP8 protease inhibitors, SAR follow-up, biochemical, luminescence, set 2 (AID 588601)
T2 sequence (Q96LD8 whole entry): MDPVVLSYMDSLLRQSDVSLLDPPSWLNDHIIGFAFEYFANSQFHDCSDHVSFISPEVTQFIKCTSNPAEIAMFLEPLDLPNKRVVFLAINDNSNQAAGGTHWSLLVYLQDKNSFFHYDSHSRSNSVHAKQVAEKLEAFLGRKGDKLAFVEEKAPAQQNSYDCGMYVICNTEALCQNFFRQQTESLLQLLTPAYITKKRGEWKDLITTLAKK

[11] = target: T1, Sentrin-specific protease 7; assay: SENP7 protease inhibitors, SAR follow-up, biochemical, luminescence (AID 504497)
[12] = target: T3, Sentrin-specific protease 6 (Homo sapiens, UniProt Q9GZR1); assay: SENP6 protease inhibitors, SAR follow-up, biochemical, luminescence, set 2 (AID 588598)
T3 sequence (Q9GZR1 whole entry): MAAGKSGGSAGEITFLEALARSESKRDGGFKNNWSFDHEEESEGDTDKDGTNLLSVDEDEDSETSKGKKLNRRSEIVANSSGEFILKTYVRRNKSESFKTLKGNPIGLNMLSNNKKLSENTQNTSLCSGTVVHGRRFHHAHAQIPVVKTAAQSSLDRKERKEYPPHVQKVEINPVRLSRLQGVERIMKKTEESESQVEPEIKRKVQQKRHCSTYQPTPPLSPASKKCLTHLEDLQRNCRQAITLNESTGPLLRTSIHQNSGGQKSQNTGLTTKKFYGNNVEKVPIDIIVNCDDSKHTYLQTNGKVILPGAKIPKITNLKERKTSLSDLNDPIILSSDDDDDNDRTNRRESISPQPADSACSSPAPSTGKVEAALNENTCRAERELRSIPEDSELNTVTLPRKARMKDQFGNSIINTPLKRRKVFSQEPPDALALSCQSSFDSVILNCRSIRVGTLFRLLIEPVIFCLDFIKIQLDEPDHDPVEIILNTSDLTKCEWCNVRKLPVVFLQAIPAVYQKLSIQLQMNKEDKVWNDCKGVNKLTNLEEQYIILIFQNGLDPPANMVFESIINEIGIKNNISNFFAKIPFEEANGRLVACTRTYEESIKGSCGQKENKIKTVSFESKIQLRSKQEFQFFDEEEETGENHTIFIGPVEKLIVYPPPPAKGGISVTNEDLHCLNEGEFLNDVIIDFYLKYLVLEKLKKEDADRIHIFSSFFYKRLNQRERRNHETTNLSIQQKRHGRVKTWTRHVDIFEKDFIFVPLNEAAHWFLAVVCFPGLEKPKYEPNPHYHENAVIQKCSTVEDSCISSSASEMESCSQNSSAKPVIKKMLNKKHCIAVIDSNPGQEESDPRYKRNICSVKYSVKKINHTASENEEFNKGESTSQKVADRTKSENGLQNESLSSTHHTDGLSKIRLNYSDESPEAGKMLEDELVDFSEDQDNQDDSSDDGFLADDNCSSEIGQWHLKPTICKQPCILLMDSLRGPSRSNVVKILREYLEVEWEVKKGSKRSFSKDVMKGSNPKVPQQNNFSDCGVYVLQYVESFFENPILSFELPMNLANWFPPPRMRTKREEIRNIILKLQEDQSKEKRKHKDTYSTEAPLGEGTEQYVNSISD

[13] = target: T4, Caspase-3 (Homo sapiens, UniProt P42574); assay: caspase-3 inhibitors as off-family protease, SAR follow-up, selectivity assay for SENP protease inhibitor project, biochemical, luminescence, set 2 (AID 588599)
T4 sequence (P42574 whole entry): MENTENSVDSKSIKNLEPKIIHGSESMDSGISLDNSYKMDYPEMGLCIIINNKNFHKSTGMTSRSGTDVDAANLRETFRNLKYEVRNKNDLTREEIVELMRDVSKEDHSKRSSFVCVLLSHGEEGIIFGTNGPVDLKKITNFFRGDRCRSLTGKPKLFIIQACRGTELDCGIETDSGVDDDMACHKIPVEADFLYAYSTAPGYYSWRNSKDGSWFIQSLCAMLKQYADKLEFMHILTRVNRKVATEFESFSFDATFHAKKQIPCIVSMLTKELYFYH

[14] = target: T3, Sentrin-specific protease 6; assay: SAR Analysis of small molecule inhibitors of Sentrin-specific protease 6 (SENP6) using a Luminescent assay. [Related pubchem assays (depositor defined):AID2582, AID2599]
[15] = target: T2, Sentrin-specific protease 8; assay: SENP8 protease inhibitors, SAR follow-up, biochemical, luminescence (AID 504501)
[16] = target: T4, Caspase-3; assay: SAR Analysis of small molecule inhibitors of Sentrin-specific proteases (SENPs) using a Caspase-3 Selectivity assay. [Related pubchem assays (depositor defined):AID2540, AID2599, AID434973, AID489001]

Sequence of Mitogen-activated protein kinase kinase kinase kinase 4 (O95819 whole entry): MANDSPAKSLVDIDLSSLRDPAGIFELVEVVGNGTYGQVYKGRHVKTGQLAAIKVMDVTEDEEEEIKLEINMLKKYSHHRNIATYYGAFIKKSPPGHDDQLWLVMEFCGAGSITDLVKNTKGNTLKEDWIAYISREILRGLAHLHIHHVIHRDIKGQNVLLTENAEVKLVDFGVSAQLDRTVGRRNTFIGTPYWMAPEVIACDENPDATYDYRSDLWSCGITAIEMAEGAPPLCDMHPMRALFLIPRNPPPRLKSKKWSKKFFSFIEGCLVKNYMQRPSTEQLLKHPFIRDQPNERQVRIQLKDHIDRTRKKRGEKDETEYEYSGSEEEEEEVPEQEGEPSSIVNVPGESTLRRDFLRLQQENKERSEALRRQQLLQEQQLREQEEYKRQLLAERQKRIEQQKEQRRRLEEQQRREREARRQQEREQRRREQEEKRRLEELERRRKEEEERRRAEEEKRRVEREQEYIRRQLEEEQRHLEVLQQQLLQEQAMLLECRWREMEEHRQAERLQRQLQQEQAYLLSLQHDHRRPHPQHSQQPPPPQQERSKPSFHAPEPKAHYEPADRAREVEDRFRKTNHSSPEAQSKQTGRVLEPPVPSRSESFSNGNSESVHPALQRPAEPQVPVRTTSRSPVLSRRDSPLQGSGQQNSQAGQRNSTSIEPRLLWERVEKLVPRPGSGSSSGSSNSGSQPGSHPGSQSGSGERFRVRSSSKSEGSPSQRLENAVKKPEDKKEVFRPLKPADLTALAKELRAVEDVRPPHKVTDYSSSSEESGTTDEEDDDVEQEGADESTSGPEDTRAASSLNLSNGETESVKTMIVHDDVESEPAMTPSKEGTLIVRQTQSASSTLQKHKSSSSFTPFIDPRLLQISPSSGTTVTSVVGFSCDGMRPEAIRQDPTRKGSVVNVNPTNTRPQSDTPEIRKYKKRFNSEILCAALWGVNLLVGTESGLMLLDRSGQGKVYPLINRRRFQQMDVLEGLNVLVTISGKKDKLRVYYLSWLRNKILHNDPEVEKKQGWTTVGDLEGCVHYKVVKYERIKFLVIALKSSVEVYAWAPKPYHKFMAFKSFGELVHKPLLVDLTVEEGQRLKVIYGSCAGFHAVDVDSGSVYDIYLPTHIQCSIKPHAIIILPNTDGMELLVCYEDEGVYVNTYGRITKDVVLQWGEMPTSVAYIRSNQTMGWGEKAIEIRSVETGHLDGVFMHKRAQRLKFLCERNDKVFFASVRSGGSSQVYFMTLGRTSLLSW
Sequence of Cell division cycle 7-related protein kinase (O00311 whole entry): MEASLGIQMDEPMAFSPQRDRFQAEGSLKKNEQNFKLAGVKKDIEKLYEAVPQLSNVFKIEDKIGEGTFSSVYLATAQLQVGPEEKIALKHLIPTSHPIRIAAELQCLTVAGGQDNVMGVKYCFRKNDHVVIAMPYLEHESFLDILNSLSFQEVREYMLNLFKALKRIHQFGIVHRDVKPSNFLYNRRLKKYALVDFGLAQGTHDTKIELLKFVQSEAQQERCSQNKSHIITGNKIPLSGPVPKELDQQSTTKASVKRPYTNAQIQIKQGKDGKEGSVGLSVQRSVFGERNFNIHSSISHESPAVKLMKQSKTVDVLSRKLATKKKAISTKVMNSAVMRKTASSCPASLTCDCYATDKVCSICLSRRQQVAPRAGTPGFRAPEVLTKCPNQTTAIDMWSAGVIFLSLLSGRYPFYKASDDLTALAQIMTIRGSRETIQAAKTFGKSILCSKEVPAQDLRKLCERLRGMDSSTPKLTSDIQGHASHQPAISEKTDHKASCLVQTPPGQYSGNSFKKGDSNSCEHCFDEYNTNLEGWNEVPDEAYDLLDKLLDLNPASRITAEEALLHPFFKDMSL
Sequence of Protein disulfide-isomerase (P07237 whole entry): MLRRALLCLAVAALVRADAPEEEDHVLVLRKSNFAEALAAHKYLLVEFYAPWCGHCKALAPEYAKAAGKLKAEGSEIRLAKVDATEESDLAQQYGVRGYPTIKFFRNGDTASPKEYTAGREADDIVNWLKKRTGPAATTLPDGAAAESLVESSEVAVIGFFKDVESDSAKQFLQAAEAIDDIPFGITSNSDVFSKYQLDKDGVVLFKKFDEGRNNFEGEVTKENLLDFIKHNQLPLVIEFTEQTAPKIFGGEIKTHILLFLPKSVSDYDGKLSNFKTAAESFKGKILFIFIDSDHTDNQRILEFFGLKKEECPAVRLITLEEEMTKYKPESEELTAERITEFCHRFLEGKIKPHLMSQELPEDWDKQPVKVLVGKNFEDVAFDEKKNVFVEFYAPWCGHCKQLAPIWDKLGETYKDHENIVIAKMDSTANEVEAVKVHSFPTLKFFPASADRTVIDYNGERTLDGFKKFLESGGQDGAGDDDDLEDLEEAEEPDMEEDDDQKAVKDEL
Sequence of Interleukin-1 receptor-associated kinase 4 (Q9NWZ3 whole entry): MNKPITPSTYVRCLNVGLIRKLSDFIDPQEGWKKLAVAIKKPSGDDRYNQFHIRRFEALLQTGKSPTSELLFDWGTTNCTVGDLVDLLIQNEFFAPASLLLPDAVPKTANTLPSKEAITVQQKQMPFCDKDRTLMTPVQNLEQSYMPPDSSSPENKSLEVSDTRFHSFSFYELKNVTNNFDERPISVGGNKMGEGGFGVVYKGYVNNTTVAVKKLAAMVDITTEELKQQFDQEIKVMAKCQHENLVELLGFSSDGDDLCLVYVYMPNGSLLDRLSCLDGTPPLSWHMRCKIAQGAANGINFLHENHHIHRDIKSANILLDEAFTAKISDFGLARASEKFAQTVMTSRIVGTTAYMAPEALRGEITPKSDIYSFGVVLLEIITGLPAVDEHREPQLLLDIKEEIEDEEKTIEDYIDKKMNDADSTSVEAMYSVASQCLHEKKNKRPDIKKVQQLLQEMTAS
Sequence of Homeodomain-interacting protein kinase 2 (Q9H2X6 whole entry): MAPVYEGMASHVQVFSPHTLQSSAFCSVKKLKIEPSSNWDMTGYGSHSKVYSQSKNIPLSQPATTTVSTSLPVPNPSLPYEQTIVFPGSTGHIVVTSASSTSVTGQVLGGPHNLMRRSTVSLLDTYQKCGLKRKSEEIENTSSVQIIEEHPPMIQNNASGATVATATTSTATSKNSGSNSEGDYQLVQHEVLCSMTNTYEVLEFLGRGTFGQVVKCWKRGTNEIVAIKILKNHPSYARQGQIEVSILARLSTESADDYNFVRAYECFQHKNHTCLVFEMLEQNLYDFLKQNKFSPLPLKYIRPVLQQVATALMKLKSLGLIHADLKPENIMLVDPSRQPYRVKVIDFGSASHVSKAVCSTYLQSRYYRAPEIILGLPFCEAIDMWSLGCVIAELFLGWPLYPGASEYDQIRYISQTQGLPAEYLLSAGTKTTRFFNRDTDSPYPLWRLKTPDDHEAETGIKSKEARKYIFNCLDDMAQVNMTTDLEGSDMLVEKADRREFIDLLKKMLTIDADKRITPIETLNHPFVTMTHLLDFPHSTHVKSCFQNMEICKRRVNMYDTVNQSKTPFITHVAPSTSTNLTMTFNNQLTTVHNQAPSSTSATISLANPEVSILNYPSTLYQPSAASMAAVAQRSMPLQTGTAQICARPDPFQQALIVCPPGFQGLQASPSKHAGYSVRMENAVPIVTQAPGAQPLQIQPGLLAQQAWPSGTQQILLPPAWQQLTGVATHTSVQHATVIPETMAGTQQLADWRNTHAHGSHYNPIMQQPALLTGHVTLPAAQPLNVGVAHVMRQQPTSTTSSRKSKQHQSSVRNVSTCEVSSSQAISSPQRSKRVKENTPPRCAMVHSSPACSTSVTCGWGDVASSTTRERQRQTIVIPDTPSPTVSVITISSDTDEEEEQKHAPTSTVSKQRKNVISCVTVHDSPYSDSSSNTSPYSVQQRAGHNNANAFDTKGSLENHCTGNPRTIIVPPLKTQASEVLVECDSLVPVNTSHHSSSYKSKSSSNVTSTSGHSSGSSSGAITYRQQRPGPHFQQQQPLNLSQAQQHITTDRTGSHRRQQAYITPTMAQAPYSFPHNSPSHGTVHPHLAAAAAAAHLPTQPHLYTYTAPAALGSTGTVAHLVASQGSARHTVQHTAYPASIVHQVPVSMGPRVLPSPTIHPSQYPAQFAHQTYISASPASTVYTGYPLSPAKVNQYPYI
Sequence of Serine/threonine-protein kinase pim-1 (P11309 whole entry): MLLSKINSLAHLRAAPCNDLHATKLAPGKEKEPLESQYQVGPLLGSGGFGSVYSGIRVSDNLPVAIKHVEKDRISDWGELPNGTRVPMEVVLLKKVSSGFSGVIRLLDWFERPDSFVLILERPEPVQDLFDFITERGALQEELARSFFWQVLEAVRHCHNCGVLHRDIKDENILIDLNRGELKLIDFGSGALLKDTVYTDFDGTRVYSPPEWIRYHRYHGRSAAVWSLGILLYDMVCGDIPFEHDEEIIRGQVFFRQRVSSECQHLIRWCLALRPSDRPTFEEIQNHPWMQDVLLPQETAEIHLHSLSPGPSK

With `Cc1ccc(Sc2c([N+](=O)[O-])c(=O)oc3ccccc23)cc1` as the compound, how does the AC50 [1] read?
Its AC50 is 37.1 µM (active).

With `O=C1NC[C@H](Cc2ccccc2)N(C[C@H]2CCCN2C[C@H](Cc2ccccc2)N2C[C@H](Cc3ccc(O)cc3)N(CCc3ccccc3)C(=O)C2=O)C1=O` as the compound, how does the AC50 [2] read?
Its AC50 is 6.5 µM (active).

Which Ki [3] does the source give for `c1ccc(Cn2cc(-c3ccc4[nH]nc(-c5cn(Cc6ccccc6)nn5)c4c3)nn2)cc1` here?
Its Ki is > 7.94 µM (inactive).

What about the Ki [4] of the same compound?
Its Ki is 0.0158 µM (active).

What about the Ki [5] of the same compound?
Its Ki is 0.398 µM (active).

And the Ki [6]?
The Ki was 0.1 µM (active).

And the Ki [7]?
Its Ki is 3.98 µM (active).

And the Ki [8]?
Its Ki is 0.0501 µM (active).

Which IC50 [9] does the source give for `CC(=O)Nc1ccc(/C=C/c2noc(-c3ccccc3O)n2)cc1` here?
The IC50 was 2.31 µM (active).

And the IC50 [10]?
Its IC50 is 1.86 µM (active).

What about the IC50 [11] of the same compound?
Its IC50 is 7.2 µM (active).

What about the IC50 [12] of the same compound?
Its IC50 is > 99 µM (inactive).

What about the IC50 [13] of the same compound?
The IC50 was > 99 µM (inactive).

And the IC50 [14]?
The IC50 was > 99 µM (inactive).

What about the IC50 [15] of the same compound?
Its IC50 is > 99 µM (inactive).

What about the IC50 [16] of the same compound?
The IC50 was 35 µM (active).
